From ChEMBL document CHEMBL1136147, “Sub-nanomolar hMC1R agonists by end-capping of the melanocortin tetrapeptide His-D-Phe-Arg-Trp-NH(2)” (Bioorg Med Chem Lett, 2003) come the findings set out here.

Test [1] has as its target T1, Melanocortin receptor 4 (Homo sapiens, UniProt P32245). Kind of test: In vitro agonist potency was evaluated in HEK293 cells transfected with human melanocortin receptor (hMC4R). Format: functional, cell-based.
In test [2] the target is T2, Melanocyte-stimulating hormone receptor (Homo sapiens, UniProt Q01726). Kind of test: In vitro agonist potency was evaluated in HEK293 cells transfected with human melanocortin receptor (hMC1R). The test is classed as functional, cell-based.
T2 sequence (Q01726 whole entry): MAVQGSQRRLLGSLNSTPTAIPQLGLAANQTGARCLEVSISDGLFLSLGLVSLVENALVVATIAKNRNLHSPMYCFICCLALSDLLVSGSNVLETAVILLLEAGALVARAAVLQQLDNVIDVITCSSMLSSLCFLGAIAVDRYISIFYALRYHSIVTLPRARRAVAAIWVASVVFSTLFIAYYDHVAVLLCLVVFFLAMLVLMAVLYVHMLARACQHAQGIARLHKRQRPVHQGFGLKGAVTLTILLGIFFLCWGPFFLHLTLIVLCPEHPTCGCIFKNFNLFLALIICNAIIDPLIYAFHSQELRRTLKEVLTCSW
Test [3] deals with T2, Melanocyte-stimulating hormone receptor. Kind of test: Binding affinity towards human Melanocortin 1 receptor (hMC1R).
The target in test [4] is T3, Melanocortin receptor 3 (Homo sapiens, UniProt P41968). Kind of test: Binding affinity towards human Melanocortin 3 receptor (hMC3R).
T3 sequence (P41968 whole entry): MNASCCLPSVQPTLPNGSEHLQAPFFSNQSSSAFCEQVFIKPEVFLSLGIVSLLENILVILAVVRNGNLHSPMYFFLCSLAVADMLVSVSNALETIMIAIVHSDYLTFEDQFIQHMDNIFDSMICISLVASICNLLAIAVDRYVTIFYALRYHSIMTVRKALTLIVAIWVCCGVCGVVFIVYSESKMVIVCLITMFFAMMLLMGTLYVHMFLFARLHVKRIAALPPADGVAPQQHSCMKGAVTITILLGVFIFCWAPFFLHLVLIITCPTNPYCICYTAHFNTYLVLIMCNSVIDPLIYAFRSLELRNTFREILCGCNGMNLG
The target of test [5] is T3, Melanocortin receptor 3. Kind of test: In vitro agonist potency was evaluated in HEK293 cells transfected with human melanocortin receptor (hMC3R). Format: functional, cell-based.
For test [6], the target named is T1, Melanocortin receptor 4. Kind of test: Binding affinity towards human melanocortin 4 receptor (hMC4R).

T1 sequence (P32245 whole entry): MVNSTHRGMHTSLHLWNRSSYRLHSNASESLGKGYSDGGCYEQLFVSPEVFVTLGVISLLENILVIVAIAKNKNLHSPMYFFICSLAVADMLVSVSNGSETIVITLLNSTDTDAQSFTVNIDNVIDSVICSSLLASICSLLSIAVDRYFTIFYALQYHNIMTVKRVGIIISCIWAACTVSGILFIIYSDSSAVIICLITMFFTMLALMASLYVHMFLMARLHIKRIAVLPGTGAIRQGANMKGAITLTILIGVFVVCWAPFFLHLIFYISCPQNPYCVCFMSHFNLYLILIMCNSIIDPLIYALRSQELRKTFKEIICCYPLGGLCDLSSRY

`N=C(N)NCCC[C@H](NC(=O)[C@H](Cc1ccccc1)NC(=O)[C@H](Cc1cnc[nH]1)NC(=O)C1CC1)C(=O)N[C@@H](Cc1c[nH]c2ccccc12)C(N)=O`: the concentration giving a half-maximal response (EC50) (usually the concentration at which the effect is half-maximal) amounted to 20.5 nM at Melanocortin receptor 4 [1], 3.5 nM in test [2] and 71 nM on Melanocortin receptor 3 [5]. In addition, the Ki (in general, a measure of affinity in units of concentration, obtained from inhibition or displacement) in test [3] amounted to 43 nM; on Melanocortin receptor 3 [4], 210 nM; on Melanocortin receptor 4 [6], 87 nM.
As for `CCCCC(=O)N[C@@H](Cc1cnc[nH]1)C(=O)N[C@@H](Cc1ccccc1)C(=O)N[C@@H](CCCNC(=N)N)C(=O)N[C@@H](Cc1c[nH]c2ccccc12)C(N)=O`, the EC50 at Melanocortin receptor 4 [1] is 26.5 nM; in test [2], 2 nM; on Melanocortin receptor 3 [5], 45 nM. Besides, the values for the Ki (in test [3]; at Melanocortin receptor 3 [4]; at Melanocortin receptor 4 [6]) were 20.5 nM, 170 nM and 120 nM, respectively.
Consider `N=C(N)NCCC[C@H](NC(=O)[C@H](Cc1ccccc1)NC(=O)[C@H](Cc1c[nH]cn1)NC(=O)CCc1ccccc1)C(=O)N[C@@H](Cc1c[nH]c2ccccc12)C(N)=O`, for which the EC50 was found to be 20 nM at Melanocortin receptor 4 [1], 0.5 nM in test [2] and 17 nM on Melanocortin receptor 3 [5]. Further, the Ki in test [3] came to 6 nM; at Melanocortin receptor 3 [4], 65 nM; on Melanocortin receptor 4 [6], 49 nM.
In the case of `CCC(=O)N[C@@H](Cc1c[nH]cn1)C(=O)N[C@@H](Cc1ccccc1)C(=O)N[C@@H](CCCN=C(N)N)C(=O)N[C@@H](Cc1c[nH]c2ccccc12)C(N)=O`, the values for the EC50 (at Melanocortin receptor 4 [1]; in test [2]; on Melanocortin receptor 3 [5]) were 38.5 nM, 7.5 nM and 450 nM, respectively. Moreover, the Ki in test [3] was found to be 47.5 nM; on Melanocortin receptor 3 [4], 540 nM; at Melanocortin receptor 4 [6], 160 nM.
In turn, `NC(=O)[C@H](Cc1c[nH]c2ccccc12)NC(=O)[C@H](CCCN=C(N)N)NC(=O)[C@@H](Cc1ccccc1)NC(=O)[C@H](Cc1cnc[nH]1)NC(=O)CCCc1ccccc1` returned an EC50 in test [2] of 0.009 nM. In addition, the Ki was 0.006 nM in test [3] and 13.5 nM on Melanocortin receptor 3 [4].
`N=C(N)NCCC[C@H](NC(=O)[C@H](Cc1ccccc1)NC(=O)[C@H](Cc1c[nH]cn1)NC(=O)Cc1ccccc1)C(=O)N[C@@H](Cc1c[nH]c2ccccc12)C(N)=O`: the EC50 at Melanocortin receptor 4 [1] is 13 nM; in test [2], 2 nM; on Melanocortin receptor 3 [5], 28 nM. In addition, the results for the Ki (in test [3]; at Melanocortin receptor 3 [4]; on Melanocortin receptor 4 [6]) were 17.5 nM, 66.5 nM and 100 nM, respectively.
As to `CC(C)C(=O)N[C@@H](Cc1cnc[nH]1)C(=O)N[C@@H](Cc1ccccc1)C(=O)N[C@@H](CCCNC(=N)N)C(=O)N[C@@H](Cc1c[nH]c2ccccc12)C(N)=O`, the EC50 came out at 24 nM on Melanocortin receptor 4 [1], 7 nM in test [2] and 130 nM at Melanocortin receptor 3 [5]. The Ki was 40 nM in test [3], 280 nM at Melanocortin receptor 3 [4] and 97.5 nM on Melanocortin receptor 4 [6].
Turning to `N=C(N)NCCC[C@H](NC(=O)[C@H](Cc1ccccc1)NC(=O)[C@@H](N)Cc1cnc[nH]1)C(=O)N[C@@H](Cc1c[nH]c2ccccc12)C(N)=O`, the EC50 on Melanocortin receptor 4 [1] is 29.7 nM; in test [2], 31.8 nM; on Melanocortin receptor 3 [5], 350 nM. The Ki in test [3] was found to be 51 nM; on Melanocortin receptor 3 [4], 890 nM; on Melanocortin receptor 4 [6], 180 nM.
Take `CC(=O)N[C@@H](Cc1c[nH]cn1)C(=O)N[C@@H](Cc1ccccc1)C(=O)N[C@@H](CCCN=C(N)N)C(=O)N[C@@H](Cc1c[nH]c2ccccc12)C(N)=O`: the values for the EC50 (in test [2]; at Melanocortin receptor 3 [5]) were 13 nM and 170 nM, respectively. Moreover, the results for the Ki (in test [3]; on Melanocortin receptor 3 [4]) were 37 nM and 770 nM, respectively.
With `CC(C)(C)C(=O)N[C@@H](Cc1cnc[nH]1)C(=O)N[C@@H](Cc1ccccc1)C(=O)N[C@@H](CCCNC(=N)N)C(=O)N[C@@H](Cc1c[nH]c2ccccc12)C(N)=O`, the EC50 was 14.5 nM on Melanocortin receptor 4 [1], 5 nM in test [2] and 13 nM on Melanocortin receptor 3 [5]. Moreover, the Ki was 43 nM in test [3], 130 nM at Melanocortin receptor 3 [4] and 160 nM on Melanocortin receptor 4 [6].
`COCC(=O)N[C@@H](Cc1cnc[nH]1)C(=O)N[C@@H](Cc1ccccc1)C(=O)N[C@@H](CCCNC(=N)N)C(=O)N[C@@H](Cc1c[nH]c2ccccc12)C(N)=O`: the half-maximal effective concentration (EC50) on Melanocortin receptor 4 [1] worked out at 42.5 nM; in test [2], 9.5 nM; on Melanocortin receptor 3 [5], 570 nM. The results for the Ki (in test [3]; on Melanocortin receptor 3 [4]; on Melanocortin receptor 4 [6]) were 91.5 nM, 380 nM and 350 nM, respectively.
Take `N=C(N)NCCC[C@H](NC(=O)[C@H](Cc1ccccc1)NC(=O)[C@H](Cc1c[nH]cn1)NC(=O)c1ccccc1)C(=O)N[C@@H](Cc1c[nH]c2ccccc12)C(N)=O`: the values for the EC50 (at Melanocortin receptor 4 [1]; in test [2]; on Melanocortin receptor 3 [5]) were 28 nM, 6.8 nM and 98.3 nM, respectively. Moreover, the values for the Ki (in test [3]; at Melanocortin receptor 3 [4]; at Melanocortin receptor 4 [6]) were 30 nM, 260 nM and 160 nM, respectively.
For `N=C(N)NCCC[C@H](NC(=O)[C@H](Cc1ccccc1)NC(=O)[C@H](Cc1c[nH]cn1)NC(=O)C(O)Cc1ccccc1)C(=O)N[C@@H](Cc1c[nH]c2ccccc12)C(N)=O` (some centres undefined), the results for the EC50 (on Melanocortin receptor 4 [1]; in test [2]; at Melanocortin receptor 3 [5]) were 6.3 nM, 8 nM and 40.5 nM, respectively. Besides, the Ki in test [3] came out at 11.5 nM; on Melanocortin receptor 3 [4], 140 nM; at Melanocortin receptor 4 [6], 15.5 nM.
With `N=C(N)NCCC[C@H](NC(=O)[C@H](Cc1ccccc1)NC(=O)[C@H](Cc1cnc[nH]1)NC(=O)CCCO)C(=O)N[C@@H](Cc1c[nH]c2ccccc12)C(N)=O`, the 50% effective concentration (EC50) on Melanocortin receptor 4 [1] was 21.3 nM; in test [2] it was 13.7 nM; at Melanocortin receptor 3 [5] it was 640 nM. The Ki in test [3] turned out to be 34 nM; on Melanocortin receptor 3 [4], 440 nM; at Melanocortin receptor 4 [6], 100 nM.
For the molecule `N=C(N)NCCC[C@H](NC(=O)[C@H](Cc1ccccc1)NC(=O)[C@H](Cc1c[nH]cn1)NC(=O)CO)C(=O)N[C@@H](Cc1c[nH]c2ccccc12)C(N)=O`, the EC50 on Melanocortin receptor 4 [1] stood at 53 nM; in test [2] it was 7 nM; on Melanocortin receptor 3 [5] it was 300 nM. Moreover, the Ki in test [3] came to 125 nM; at Melanocortin receptor 3 [4], 630 nM; at Melanocortin receptor 4 [6], 440 nM.
Consider `CSCC(=O)N[C@@H](Cc1cnc[nH]1)C(=O)N[C@@H](Cc1ccccc1)C(=O)N[C@@H](CCCNC(=N)N)C(=O)N[C@@H](Cc1c[nH]c2ccccc12)C(N)=O`, for which the half-maximal effective concentration (EC50) stood at 41 nM on Melanocortin receptor 4 [1], 9 nM in test [2] and 230 nM at Melanocortin receptor 3 [5]. In addition, the Ki in test [3] is 57.5 nM; on Melanocortin receptor 3 [4], 230 nM; at Melanocortin receptor 4 [6], 210 nM.
On to `N=C(N)NCCC[C@H](NC(=O)[C@H](Cc1ccccc1)NC(=O)[C@H](Cc1cnc[nH]1)NS(=O)(=O)c1ccc(Cl)cc1)C(=O)N[C@@H](Cc1c[nH]c2ccccc12)C(N)=O`, for which the EC50 at Melanocortin receptor 4 [1] is 11 nM; in test [2] it was 33.3 nM; on Melanocortin receptor 3 [5], 390 nM. Also, the Ki in test [3] was determined as 170 nM; on Melanocortin receptor 3 [4], 440 nM; at Melanocortin receptor 4 [6], 66.5 nM.
As to `N=C(N)NCCC[C@H](NC(=O)[C@H](Cc1ccccc1)NC(=O)[C@H](Cc1cnc[nH]1)NC(=O)C(N)=O)C(=O)N[C@@H](Cc1c[nH]c2ccccc12)C(N)=O`, the EC50 came to 16.5 nM at Melanocortin receptor 4 [1], 7 nM in test [2] and 58 nM on Melanocortin receptor 3 [5]. Also, the inhibition constant Ki is 62 nM in test [3], 160 nM on Melanocortin receptor 3 [4] and 140 nM on Melanocortin receptor 4 [6].
For the molecule `CS(=O)(=O)N[C@@H](Cc1c[nH]cn1)C(=O)N[C@@H](Cc1ccccc1)C(=O)N[C@@H](CCCN=C(N)N)C(=O)N[C@@H](Cc1c[nH]c2ccccc12)C(N)=O`, the EC50 on Melanocortin receptor 4 [1] is 21.5 nM; in test [2] it was 88 nM; at Melanocortin receptor 3 [5] it was 840 nM. Moreover, the Ki amounted to 260 nM in test [3], 1900 nM at Melanocortin receptor 3 [4] and 170 nM at Melanocortin receptor 4 [6].
Take `CCCC(=O)N[C@@H](Cc1cnc[nH]1)C(=O)N[C@@H](Cc1ccccc1)C(=O)N[C@@H](CCCNC(=N)N)C(=O)N[C@@H](Cc1c[nH]c2ccccc12)C(N)=O`: the EC50 at Melanocortin receptor 4 [1] is 38.5 nM; in test [2], 4.5 nM; at Melanocortin receptor 3 [5], 93.3 nM. For the same molecule, the Ki in test [3] was 37.5 nM; on Melanocortin receptor 3 [4], 580 nM; at Melanocortin receptor 4 [6], 150 nM.
Turning to `N=C(N)NCCC[C@H](NC(=O)[C@H](Cc1ccccc1)NC(=O)[C@H](Cc1c[nH]cn1)NC(=O)COc1ccc(Cl)cc1)C(=O)N[C@@H](Cc1c[nH]c2ccccc12)C(N)=O`, the figures for the EC50 (on Melanocortin receptor 4 [1]; in test [2]; at Melanocortin receptor 3 [5]) were 11.5 nM, 2 nM and 6 nM, respectively. Also, the Ki in test [3] stood at 6 nM; at Melanocortin receptor 3 [4], 110 nM; at Melanocortin receptor 4 [6] it was 68 nM.
On to `N=C(N)NCCC[C@H](NC(=O)[C@H](Cc1ccccc1)NC(=O)[C@H](Cc1c[nH]cn1)NC(=O)CC(F)(F)F)C(=O)N[C@@H](Cc1c[nH]c2ccccc12)C(N)=O`, for which the concentration giving a half-maximal response (EC50) on Melanocortin receptor 4 [1] was 22.5 nM; in test [2], 6.5 nM; at Melanocortin receptor 3 [5], 120 nM. Also, the Ki in test [3] came out at 63.5 nM; at Melanocortin receptor 3 [4] it was 540 nM; at Melanocortin receptor 4 [6], 170 nM.
Take `N#CCC(=O)N[C@@H](Cc1c[nH]cn1)C(=O)N[C@@H](Cc1ccccc1)C(=O)N[C@@H](CCCNC(=N)N)C(=O)N[C@@H](Cc1c[nH]c2ccccc12)C(N)=O`: the EC50 on Melanocortin receptor 4 [1] was determined as 18 nM; in test [2], 8 nM; at Melanocortin receptor 3 [5] it was 160 nM. Also, the Ki in test [3] was determined as 86.5 nM; on Melanocortin receptor 3 [4], 350 nM; at Melanocortin receptor 4 [6] it was 110 nM.
As to `N=C(N)NCCC[C@H](NC(=O)[C@H](Cc1ccccc1)NC(=O)[C@H](Cc1cnc[nH]1)NC(=O)Cc1ccc(Cl)cc1)C(=O)N[C@@H](Cc1c[nH]c2ccccc12)C(N)=O`, the results for the EC50 (on Melanocortin receptor 4 [1]; in test [2]; at Melanocortin receptor 3 [5]) were 7.5 nM, 9.5 nM and 9.3 nM, respectively. Further, the inhibition constant Ki is 3.5 nM in test [3], 20 nM on Melanocortin receptor 3 [4] and 5 nM on Melanocortin receptor 4 [6].
